Assay results as given in patent publication US8338445B2, “Crystal form of cabergoline” (Lek Pharmaceuticals D.D., priority 2007, dated 2012).

Columns and labels:
[1] = Residual solvents after comparable drying of crystal forms; assay type: physicochemical; conditions: after drying at 35° C. at 5 mBar for 48 h; both forms isolated from same solvent mixture
Experimental: Cabergoline from L isolated by the process of the invention can be washed by cold aliphatic hydrocarbons or digesting previously isolated material in a suspension of aliphatic hydrocarbons preferably heptane to remove impurities and finally dried in vacuo at temperature from 20 to 80° C., preferably from 30 to 50° C., preferably 30 to 40° C. to remove residual solvents. […] Form L and form I are isolated from the same solvent mixture, but form I is captured as an early precipitate as described in Example B and contains below 5% of form L. Solvents are easier removed if cabergoline is in the form of needles.
6.1 g of cabergoline obtained in example 1 were dissolved in 12 ml of 2-chlorotoluene by agitating at room temperature. The solution was cooled down to −30° C. while stirring. The gel-like material was formed after 60 minutes. Furthermore 150 ml of n-heptane were added and let stirring 1 hour at −20° C. Further the solvent was exchanged with 100 ml of fresh n-heptane, precooled to −20° C. and let stirring 1 hour at −20° C. Afterwards the temperature was slowly raising to 0° C. (0.5 K/min) and small samples were analyzed.

[2] = Particle size distribution by the Malvern method; assay type: physicochemical
Experimental: Physically pure cabergoline form L is isolated in a form of fine needles what is shown in the SEM picture. Average shorter axis of the needles is below 10 μm. Milling of cabergoline form L isolated by the process of the invention by a hammer mill gives particle size distribution d 0.9 below 10 μm.
6.1 g of cabergoline obtained in Example 1 were dissolved in 12 ml of 2-chlorotoluene by agitating at room temperature. The solution was cooled down to −30° C. while stirring. The gel-like material was formed after 60 minutes. Furthermore 150 ml of n-heptane were added and let stirring 1 hour at −20° C. Further the solvent was exchanged with 100 ml of fresh n-heptane, precooled to −20° C. and let stirring 1 hour at −20° C. Afterwards the temperature was raised to 10° C. (0.5 K/min) and further stirred for 1 hour, The temperature was raised to 20° C. (0.5 K/min) followed by stirring for 5 hour. The obtained dense suspension was filtered and washed with 50 ml of n-heptane and dried at 40° C. and 5 mbar for 24 hours. The obtained needle-like product (5.5 g) was identified as cabergoline form L. Particle size distribution of the product of Example 2 is the following: d 0.1=0.4 um; d 0.5=4.2 um; d 0.9=33 um.
Particle size distribution was measured by the Malvern method.

C=CCN1C[C@H](C(=O)N(CCCN(C)C)C(=O)NCC)C[C@@H]2c3cccc4[nH]cc(c34)C[C@H]21 [Cabergoline form I, 1-((6-allylergolin-8β-yl)-carbonyl)-1-(3-dimethylaminopropyl)-3-ethylurea, reference compound]
residual solvent 2-Chlorotoluene [1]: 333 ppm | residual solvent Heptane [1]: 764 ppm

C=CCN1C[C@H](C(=O)N(CCCN(C)C)C(=O)NCC)C[C@@H]2c3cccc4[nH]cc(c34)C[C@H]21 [Cabergoline form L, 1-((6-allylergolin-8β-yl)-carbonyl)-1-(3-dimethylaminopropyl)-3-ethylurea]
particle size distribution d 0.9 ([2]; after milling by a hammer mill): below 10 μm | Particle size distribution d 0.1 ([2]; product of Example 2, unmilled): 0.4 um | Particle size distribution d 0.5 ([2]; product of Example 2, unmilled): 4.2 um | particle size distribution d 0.9 ([2]; product of Example 2, unmilled): 33 um | residual solvent 2-Chlorotoluene [1]: 236 ppm | residual solvent Heptane [1]: 186 ppm
